Legend:
Format in all cases: in vivo
[1] = tested on: barnyardgrass (Echinochloa crus-galli); test: Test A preemergence, visual plant response rating; conditions: for Barnyardgrass plant response rating: 125 g ai/ha, preemergence, 0 to 100 scale, 0 no effect, 100 complete control; for Barnyardgrass plant response rating (0 to 100 scale): 500 g ai/ha Preemergence, approx. 10 days
In short: (§1)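 Greenhouse evaluation, approx. 10 days post-spray. Soil: loam + sand. Postemergence stage: 1–2 leaves, height 2–10 cm. Vehicle: non-phytotoxic solvent blend with surfactant. Score: visual injury on a 0 (no effect) to 100 (complete control) scale.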

kochia (Kochia scoparia) [2] = test: Test A preemergence, visual plant response rating; conditions: for Kochia plant response rating: 125 g ai/ha, preemergence, 0 to 100 scale, 0 no effect, 100 complete control; for Kochia plant response rating (0 to 100 scale): 500 g ai/ha Preemergence, approx. 10 days
In short: as §1

[3] = tested on: Italian ryegrass (Lolium multiflorum); test: Test A preemergence, visual plant response rating; conditions: for Ryegrass, Italian plant response rating: 125 g ai/ha, preemergence, 0 to 100 scale, 0 no effect, 100 complete control; for Ryegrass, Italian plant response rating (0 to 100 scale): 500 g ai/ha Preemergence, approx. 10 days
In short: as §1

[4] = tested on: foxtail, giant (giant foxtail, Setaria faberii); test: Test A preemergence, visual plant response rating; conditions: for Foxtail, Giant plant response rating: 125 g ai/ha, preemergence, 0 to 100 scale, 0 no effect, 100 complete control; for Foxtail, Giant plant response rating (0 to 100 scale): 500 g ai/ha Preemergence, approx. 10 days
In short: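 Formulated in a non-phytotoxic solvent mixture including surfactant, each test chemical was sprayed onto the soil surface after sowing, or onto seedlings 2 to 10 cm high. Roughly 10 days later, plants were compared with untreated controls and rated for injury from 0 (no effect) to 100 (complete control).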

[5] = tested on: ragweed (common ragweed, Ambrosia elatior); test: Test A preemergence, visual plant response rating; conditions: for Ragweed plant response rating: 125 g ai/ha, preemergence, 0 to 100 scale, 0 no effect, 100 complete control; for Ragweed plant response rating (0 to 100 scale): 500 g ai/ha Preemergence, approx. 10 days
In short: as §1

[6] = tested on: pigweed (Amaranthus retroflexus); test: Test A preemergence, visual plant response rating; conditions: for Pigweed plant response rating: 125 g ai/ha, preemergence, 0 to 100 scale, 0 no effect, 100 complete control; for Pigweed plant response rating (0 to 100 scale): 500 g ai/ha Preemergence, approx. 10 days
In short: as §1

[7] = tested on: barnyardgrass (Echinochloa crus-galli); test: Test B flooded paddy test, visual plant response rating; conditions: 250 g ai/ha, Flood, applied to paddy water, 2-leaf stage, evaluated after 13 to 15 days
In short: (§2)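 Compounds added straight into paddy water of pots flooded to 3 cm, with 2-leaf-stage plants of the four species; water level held throughout.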

[8] = tested on: sedge, umbrella (small-flower umbrella sedge, Cyperus difformis); test: as above; conditions: 250 g ai/ha, Flood, applied to paddy water, 2-leaf stage, evaluated after 13 to 15 days
In short: as §2

[9] = tested on: ducksalad (Heteranhera limosa); test: as above; conditions: 250 g ai/ha, Flood, applied to paddy water, 2-leaf stage, evaluated after 13 to 15 days
In short: as §2

rice (Oryza sativa) = test: as above; conditions: 250 g ai/ha, Flood, applied to paddy water, 2-leaf stage, evaluated after 13 to 15 days
In short: as §2

[10] = tested on: barnyardgrass (Echinochloa crus-galli); test: Test A postemergence, visual plant response rating; conditions: for Barnyardgrass plant response rating (0 to 100 scale): 500 g ai/ha, postemergence, 0 is no effect, 100 is complete control; for Barnyardgrass plant response rating: Postemergence, 125 g ai/ha, 0 to 100 scale (0 no effect, 100 complete control)
In short: as §1

kochia (Kochia scoparia) [11] = test: Test A postemergence, visual plant response rating; conditions: for Kochia plant response rating (0 to 100 scale): 500 g ai/ha, postemergence, 0 is no effect, 100 is complete control; for Kochia plant response rating: Postemergence, 125 g ai/ha, 0 to 100 scale (0 no effect, 100 complete control)
In short: as §1

[12] = tested on: galium (catchweed bedstraw, Galium aparine); test: Test A postemergence, visual plant response rating; conditions: for Galium plant response rating (0 to 100 scale): 500 g ai/ha, postemergence, 0 is no effect, 100 is complete control; for Galium plant response rating: Postemergence, 125 g ai/ha, 0 to 100 scale (0 no effect, 100 complete control)
In short: as §1

[13] = tested on: Italian ryegrass (Lolium multiflorum); test: Test A postemergence, visual plant response rating; conditions: for Ryegrass, Italian plant response rating: 125 g ai/ha, 0 to 100 scale (0 no effect, 100 complete control)
In short: as §1

corn (Zea mays) = test: Test A postemergence, visual plant response rating; conditions: for Corn plant response rating (0 to 100 scale): 500 g ai/ha, postemergence, 0 is no effect, 100 is complete control; for Corn plant response rating: Postemergence, 125 g ai/ha, 0 to 100 scale (0 no effect, 100 complete control)
In short: as §1

[14] = tested on: foxtail, giant (giant foxtail, Setaria faberii); test: Test A postemergence, visual plant response rating; conditions: for Foxtail, Giant plant response rating (0 to 100 scale): 500 g ai/ha, postemergence, 0 is no effect, 100 is complete control; for Foxtail, Giant plant response rating: Postemergence, 125 g ai/ha, 0 to 100 scale (0 no effect, 100 complete control)
In short: as §1

[15] = tested on: ragweed (common ragweed, Ambrosia elatior); test: Test A postemergence, visual plant response rating; conditions: for Ragweed plant response rating (0 to 100 scale): 500 g ai/ha, postemergence, 0 is no effect, 100 is complete control; for Ragweed plant response rating: Postemergence, 125 g ai/ha, 0 to 100 scale (0 no effect, 100 complete control)
In short: as §1

[16] = tested on: pigweed (Amaranthus retroflexus); test: Test A postemergence, visual plant response rating; conditions: for Pigweed plant response rating (0 to 100 scale): 500 g ai/ha, postemergence, 0 is no effect, 100 is complete control; for Pigweed plant response rating: Postemergence, 125 g ai/ha, 0 to 100 scale (0 no effect, 100 complete control)
In short: as §1

[17] = tested on: blackgrass (Alopecurus myosuroides); test: Test A postemergence, visual plant response rating; conditions: for Blackgrass plant response rating (0 to 100 scale): 500 g ai/ha, postemergence, 0 is no effect, 100 is complete control; for Blackgrass plant response rating: Postemergence, 125 g ai/ha, 0 to 100 scale (0 no effect, 100 complete control)
In short: as §1

[18] = tested on: wheat (Triticum aestivum); test: Test A postemergence, visual plant response rating; conditions: for Wheat plant response rating: 125 g ai/ha, 0 to 100 scale (0 no effect, 100 complete control)
In short: as §1

[19] = 500 g ai/ha, postemergence, 0 is no effect, 100 is complete control

Row | SMILES | Barnyardgrass plant response rating [1] | Barnyardgrass plant response rating (0 to 100 scale) [1] | Kochia plant response rating (kochia (Kochia scoparia) [2]) | Kochia plant response rating (0 to 100 scale) (kochia (Kochia scoparia) [2]) | Ryegrass, Italian plant response rating [3] | Ryegrass, Italian plant response rating (0 to 100 scale) [3] | Foxtail, Giant plant response rating [4] | Foxtail, Giant plant response rating (0 to 100 scale) [4] | Ragweed plant response rating [5] | Ragweed plant response rating (0 to 100 scale) [5] | Pigweed plant response rating [6] | Pigweed plant response rating (0 to 100 scale) [6] | Plant response rating, Barnyardgrass (0 to 100 scale, 0 is no effect, 100 is complete control) [7] | Plant response rating, Sedge, Umbrella (0 to 100 scale, 0 is no effect, 100 is complete control) [8] | Plant response rating, Ducksalad (0 to 100 scale, 0 is no effect, 100 is complete control) [9] | Plant response rating, Rice (0 to 100 scale, 0 is no effect, 100 is complete control) (rice (Oryza sativa)) | Barnyardgrass plant response rating (0 to 100 scale) [10] | Barnyardgrass plant response rating [10] | Kochia plant response rating (0 to 100 scale) (kochia (Kochia scoparia) [11]) | Kochia plant response rating (kochia (Kochia scoparia) [11]) | other results
1 | CO/N=C(\c1cccc(C)c1F)c1c(O)c(C)nn(C)c1=O [Compound 50] | 10 | 60 | 10 | 70 | 30 | 30 | 0 | 40 | 50 | 90 | 30 | 90 | 0 | 0 | 0 | 0 | 40 | 10 | 80 | 60 | Galium plant response rating (0 to 100 scale) [12]: 70; Galium plant response rating [12]: 70; Ryegrass, Italian plant response rating (0 to 100 scale) [13, 19]: 80; Ryegrass, Italian plant response rating ([13]; Postemergence): 20; Corn plant response rating (0 to 100 scale) (corn (Zea mays)): 0; Corn plant response rating (corn (Zea mays)): 0; Foxtail, Giant plant response rating (0 to 100 scale) [14]: 70; Foxtail, Giant plant response rating [14]: 20; Ragweed plant response rating (0 to 100 scale) [15]: 80; Ragweed plant response rating [15]: 70; Pigweed plant response rating (0 to 100 scale) [16]: 90; Pigweed plant response rating [16]: 90; Blackgrass plant response rating (0 to 100 scale) [17]: 30; Blackgrass plant response rating [17]: 0; Wheat plant response rating (0 to 100 scale) [18, 19]: 0; Wheat plant response rating ([18]; Postemergence): 0
2 | C#CCON=C(c1c(O)c(C)nn(C)c1=O)c1cccc2ccccc12 (mixture of isomers) [Compound 118] | 60 | 100 | 40 | 60 | 100 | 100 | 80 | 100 | 80 | 100 | 100 | 100 | 0 | 35 | 55 | 0 | 90 | 90 | 100 | 70 | Galium plant response rating (0 to 100 scale) [12]: 100; Galium plant response rating [12]: 90; Ryegrass, Italian plant response rating (0 to 100 scale) [13, 19]: 100; Ryegrass, Italian plant response rating ([13]; Postemergence): 90; Corn plant response rating (0 to 100 scale) (corn (Zea mays)): 70; Corn plant response rating (corn (Zea mays)): 30; Foxtail, Giant plant response rating (0 to 100 scale) [14]: 90; Foxtail, Giant plant response rating [14]: 80; Ragweed plant response rating (0 to 100 scale) [15]: 90; Ragweed plant response rating [15]: 90; Pigweed plant response rating (0 to 100 scale) [16]: 100; Pigweed plant response rating [16]: 100; Blackgrass plant response rating (0 to 100 scale) [17]: 100; Blackgrass plant response rating [17]: 90; Wheat plant response rating (0 to 100 scale) [18, 19]: 90; Wheat plant response rating ([18]; Postemergence): 40
3 | CO/N=C(/c1cscc1C)c1c(O)c(C)nn(C)c1=O [Compound 140] | 0 | 0 | 0 | 0 | 20 | 50 | 0 | 10 | 10 | 50 | 0 | 90 | 0 | 0 | 0 | 0 | 20 | 0 | 60 | 20 | Galium plant response rating (0 to 100 scale) [12]: 70; Galium plant response rating [12]: 70; Ryegrass, Italian plant response rating (0 to 100 scale) [13, 19]: 60; Ryegrass, Italian plant response rating (0 to 100 scale) ([13]; Postemergence, rate not given, approx. 10 days): 10; Corn plant response rating (0 to 100 scale) (corn (Zea mays)): 20; Corn plant response rating (corn (Zea mays)): 10; Foxtail, Giant plant response rating (0 to 100 scale) [14]: 30; Foxtail, Giant plant response rating [14]: 10; Ragweed plant response rating (0 to 100 scale) [15]: 70; Ragweed plant response rating [15]: 50; Pigweed plant response rating (0 to 100 scale) [16]: 90; Pigweed plant response rating [16]: 80; Blackgrass plant response rating (0 to 100 scale) [17]: 0; Blackgrass plant response rating [17]: 0; Wheat plant response rating (0 to 100 scale) [18, 19]: 0; Wheat plant response rating (0 to 100 scale) ([18]; Postemergence, approx. 10 days): 0

From patent US20210045385A1, “PYRIDAZINONE-SUBSTITUTED KETOXIMES AS HERBICIDES” (FMC Corporation, priority 2018, published 2021)
